According to article PMC12869562 (Research Square, 2026):
No end group written: not given here.

Assay: In vitro plasma stability
Type: in vitro ADME, mouse (C57BL/6)
Details: C57BL/6, mouse, read-out: half-life t1/2 (in vitro plasma) (converted)
Experimental: Each aliquot (50 μl) was mixed with 150 μl methanol, vortexed, spun, removed the supernatant and reconstituted the pellet with 150 μl 10% formic acid in water. The sample was vortexed and spun and a 100 μl aliquot was taken, diluted 1:1 with 10 mM ammonium bicarbonate, and analyzed by LC-MS/MS. Using the remaining vs. time dataset, we performed a first-order decay analysis by fitting a linear regression to the natural log-transformed percent remaining values (excluding 0% and t = 0 anchor point) to plot the graph.

## SSMKLSFRARAYGFRGPGPQL [CST, Catestatin]
  half-life at 5 μg/ml: 5.56 h
